In patent US20250195590A1, “PHAGE AND ALLICIN COMPOSITION FOR INFECTION TREATMENT” (GUANGZHOU MEDICAL UNIVERSITY, priority 2023, published 2025):
In brackets after ≈: the same amount, converted by molar mass.

How the values were obtained:
[1] = tested on: Pseudomonas aeruginosa host bacteria; experiment: Drug resistance of host bacteria; type: cell-based
Pseudomonas aeruginosa [2] = experiment: Bacteriostasis effect of phage in combination with allicin (combination experiment, OD600, FIC index); type: cell-based
Description: (§1) The allicin is diluted to 7.5 mg/mL, 3.75 mg/mL, 0.375 mg/mL, 0.0375 mg/mL, 0.00375 mg/mL and 0.000375 mg/mL respectively, and the phage is diluted to 3×10^4 pfu/mL, 3×10^3 pfu/mL, 3×10^2 pfu/ml, and 3×10^1 pfu/ml respectively, and the host bacteria are diluted to 3×10^5 cfu/mL; allicin, phage, and host bacteria are aspirated 50 μL each and added into each well of the 96-well plate, then the OD600 value is measured, the OD600 value is measured again after overnight shaker incubation at 37° C. and 220 rpm, and the absorbance change value is calculated to determine the inhibition effect on the bacteria.
In the combination experiment, the bacteriostatic effect of allicin in different concentrations (i.e. allicin alone) is calculated and analyzed when the phage concentration is 0 pfu/mL.
In the combination experiment, the bacteriostatic effect of phages with different concentrations (that is, phages alone) is calculated and analyzed when the concentration of allicin is 0 μg/mL.
Different concentrations of allicin and phage are mixed in a 96-well plate by broth dilution method, and the OD600 value is measured. After overnight shaking table culture at 37° C. and 220 rpm, the OD600 value is measured again, and the chart is drawn.
Judging the combination effect according to the fractional inhibitory concentration (FIC) index^[6]: FIC=MIC (in combination with group A)/MIC (group A used alone)+MIC (in combination with group B)/MIC (group B used alone).
FIC index interpretation criteria: when the FIC index is less than 0.5, the two drugs are synergistic; when the FIC index is 0.5-1, the two drugs are mutually additive; when the FIC index is greater than 1 and less than 2, the two drugs are unrelated; when the FIC index is greater than 2, the two drugs are antagonistic.

Pseudomonas aeruginosa [3] = experiment: Measurement of the minimum inhibitory concentration (micro broth dilution method); type: cell-based; conditions: allicin alone, preliminary experiment, FIG. 1
Description: as §1
After the experiment, the experimental results are shown in FIG. 2, and the MIC of phage is 1×10^3 pfu/mL.

[4] = tested on: Pseudomonas aeruginosa phage vB_PaeP_GZMU_A1002; experiment: Effect of allicin on phage potency; conditions: incubated 37° C. 3 h, paired sample T test, 0.05 level, FIG. 3
Description: The solution of Pseudomonas aeruginosa phage vB_PaeP_GZMU_A1002 is diluted to a certain extent, and 100 μL of the diluted phage is mixed with 100 μL of the host bacteria and incubated at 37° C. for 15 min. The incubation solution is mixed with 0.7% semisolid LB agar, spread evenly on top of 1.5% solid LB agar spread on a Petri dish in advance, and cultured in a constant temperature incubator at 37° C. for 8 h or overnight. After the culture, a number of light-transmitting plaques may be seen in the Petri dish. A number of light-transmissive phage spots are visible in the petri dish after incubation, and the optimal view is selected to have 30-300 phage spots in the field of view, and the potency is calculated as potency=(10×number of phage spots)/dilution.
The Pseudomonas aeruginosa phage vB_PaeP_GZMU_A1002 is diluted to 10-8, and 100 μL of phage is mixed with 100 μL of allicin. At the same time, 100 μL of phage is mixed with 100 μL of LB as the control group, which is repeated in parallel for three times, mixed and incubated at 37° C. for 3 h, and then the potency is measured.
In this embodiment, paired sample T test is used to determine whether allicin has an effect on phage titer.

**Q.** C[C@H]1[C@H](NC(=O)/C(=N\OC(C)(C)C(=O)O)c2csc(N)n2)C(=O)N1S(=O)(=O)O [Aztreonam] was tested. Which “Drug resistance of host bacteria” value ([1]; strain B- P. aeruginosa-029) did it give?
**A.** Its value is “Resistant”.

**Q.** What about the “Drug resistance of host bacteria” value ([1]; strain B- P. aeruginosa-037) of the same compound?
**A.** The value was “Resistant”.

**Q.** And the “Drug resistance of host bacteria” value ([1]; strain P. aeruginosa-2 (r74))?
**A.** Its value is “Resistant”.

**Q.** And the “Drug resistance of host bacteria” value ([1]; strain P. aeruginosa-4)?
**A.** Its value is “Resistant”.

**Q.** What about the “Drug resistance of host bacteria” value ([1]; strain P. aeruginosa-13) of the same compound?
**A.** Its value is “Resistant”.

**Q.** And the “Drug resistance of host bacteria” value ([1]; strain P. aeruginosa-14)?
**A.** Its value is “Resistant”.

**Q.** What about the “Drug resistance of host bacteria” value ([1]; strain P. aeruginosa-22) of the same compound?
**A.** The value was “Resistant”.

**Q.** What about the “Drug resistance of host bacteria” value ([1]; strain P. aeruginosa-25) of the same compound?
**A.** The value was “Resistant”.

**Q.** And the “Drug resistance of host bacteria” value ([1]; strain P. aeruginosa-26)?
**A.** The value was “Resistant”.

**Q.** And the “Drug resistance of host bacteria” value ([1]; strain P. aeruginosa-27)?
**A.** Its value is “Resistant”.

**Q.** What about the “Drug resistance of host bacteria” value ([1]; strain P. aeruginosa-30) of the same compound?
**A.** The value was “Resistant”.

**Q.** And the “Drug resistance of host bacteria” value ([1]; strain P. aeruginosa′-3)?
**A.** Its value is “Resistant”.

**Q.** And the “Drug resistance of host bacteria” value ([1]; strain P. aeruginosa′-4)?
**A.** The value was “Resistant”.

**Q.** What about the “Drug resistance of host bacteria” value ([1]; strain P. aeruginosa′-5) of the same compound?
**A.** The value was “Resistant”.

**Q.** And the “Drug resistance of host bacteria” value ([1]; strain P. aeruginosa′-10)?
**A.** Its value is “Resistant”.

**Q.** Which “Drug resistance of host bacteria” value ([1]; strain B- P. aeruginosa-029) does the source give for O=C(O)c1cn(C2CC2)c2cc(N3CCNCC3)c(F)cc2c1=O [Ciprofloxacin] here?
**A.** Its value is “Resistant”.

**Q.** And the “Drug resistance of host bacteria” value ([1]; strain B- P. aeruginosa-035)?
**A.** Its value is “Resistant”.

**Q.** And the “Drug resistance of host bacteria” value ([1]; strain B- P. aeruginosa-037)?
**A.** Its value is “Resistant”.

**Q.** What about the “Drug resistance of host bacteria” value ([1]; strain B- P. aeruginosa-041) of the same compound?
**A.** Its value is “Resistant”.

**Q.** What about the “Drug resistance of host bacteria” value ([1]; strain B- P. aeruginosa-042) of the same compound?
**A.** Its value is “Resistant”.

**Q.** What about the “Drug resistance of host bacteria” value ([1]; strain B-P. AERUGINOSA-027) of the same compound?
**A.** Its value is “Resistant”.

**Q.** And the “Drug resistance of host bacteria” value ([1]; strain P. aeruginosa-25)?
**A.** The value was “Resistant”.

**Q.** And the “Drug resistance of host bacteria” value ([1]; strain P. aeruginosa-29)?
**A.** The value was “Resistant”.

**Q.** How did the “Drug resistance of host bacteria” value ([1]; strain P. aeruginosa′-5) turn out when NCC[C@H](O)C(=O)N[C@@H]1C[C@H](N)[C@@H](O[C@H]2O[C@H](CN)[C@@H](O)[C@H](O)[C@H]2O)[C@H](O)[C@H]1O[C@H]1O[C@H](CO)[C@@H](O)[C@H](N)[C@H]1O [Amikacin] was run?
**A.** The value was “Resistant”.

**Q.** How did the MIC (Pseudomonas aeruginosa [2]; Pseudomonas aeruginosa, combination experiment, phage concentration 0 pfu/mL, FIG. 4, read-out: MIC of allicin alone) turn out when C=CCS[S+]([O-])CC=C (centres unmarked) [allicin] was run?
**A.** Its MIC is 1250 µg/mL.

**Q.** What about the OD600 (Pseudomonas aeruginosa [2]; allicin alone 1.25 mg/mL, FIG. 4) of the same compound?
**A.** The OD600 was “about 0”.

**Q.** And the “decrease of amount when used in combination as compared to singly” value (Pseudomonas aeruginosa [2]; allicin with phage)?
**A.** Its value is “three orders of magnitude”.

**Q.** And the “best combination dosage, allicin” value (Pseudomonas aeruginosa [2]; in combination with 1×10^2 pfu/mL phage, FIG. 6)?
**A.** The value was 1.25 µg/mL.

**Q.** And the “optimal concentration for combination, allicin” value (Pseudomonas aeruginosa [2]; with 1×10^2 pfu/mL phage, FIG. 6)?
**A.** Its value is 1/1000.

**Q.** What about the MIC (Pseudomonas aeruginosa [3]) of the same compound?
**A.** Its MIC is 1250 µg/mL (≈ 7.7 mM).

**Q.** What about the “effect of allicin on phage potency (titer)” value [4] of the same compound?
**A.** Its value is “no negative effect”.

**Q.** CO/N=C(\C(=O)N[C@@H]1C(=O)N2C(C(=O)[O-])=C(C[N+]3(C)CCCC3)CS[C@H]12)c1csc(N)n1 [Cefepime] was tested. Which “Drug resistance of host bacteria” value ([1]; strain B- P. aeruginosa-029) did it give?
**A.** The value was “Resistant”.

**Q.** And the “Drug resistance of host bacteria” value ([1]; strain P. aeruginosa-2 (r74))?
**A.** The value was “Resistant”.

**Q.** And the “Drug resistance of host bacteria” value ([1]; strain P. aeruginosa-24)?
**A.** Its value is “Resistant”.

**Q.** What about the “Drug resistance of host bacteria” value ([1]; strain P. aeruginosa-30) of the same compound?
**A.** The value was “Resistant”.

**Q.** And the “Drug resistance of host bacteria” value ([1]; strain P. aeruginosa′-5)?
**A.** The value was “Resistant”.

**Q.** Which results are given for Piperacillin/Tazobactam?
**A.** Drug resistance of host bacteria ([1]; strain B- P. aeruginosa-029): Resistant; Drug resistance of host bacteria ([1]; strain B- P. aeruginosa-037): Resistant; Drug resistance of host bacteria ([1]; strain P. aeruginosa-2 (r74)): Resistant; Drug resistance of host bacteria ([1]; strain P. aeruginosa-14): Resistant; Drug resistance of host bacteria ([1]; strain P. aeruginosa-23): Resistant; Drug resistance of host bacteria ([1]; strain P. aeruginosa-26): Resistant; Drug resistance of host bacteria ([1]; strain P. aeruginosa-30): Resistant; Drug resistance of host bacteria ([1]; strain P. aeruginosa-32): Resistant; Drug resistance of host bacteria ([1]; strain P. aeruginosa′-3): Resistant; Drug resistance of host bacteria ([1]; strain P. aeruginosa′-4): Resistant; Drug resistance of host bacteria ([1]; strain P. aeruginosa′-5): Resistant; Drug resistance of host bacteria ([1]; strain P. aeruginosa′-6): Resistant; Drug resistance of host bacteria ([1]; strain P. aeruginosa′-15): Resistant

**Q.** NC[C@H]1O[C@H](O[C@H]2[C@H](O)[C@@H](O[C@H]3O[C@H](CO)[C@@H](O)[C@H](N)[C@H]3O)[C@H](N)C[C@@H]2N)[C@H](N)C[C@@H]1O [Tobramycin] was tested. Which “Drug resistance of host bacteria” value ([1]; strain P. aeruginosa-29) did it give?
**A.** Its value is “Resistant”.
